Assay results reported in patent US20230085307A1, “PYRIDAZINONE COMPOUND AND HERBICIDE” (NISSAN CHEMICAL CORPORATION, priority 2019, published 2023).

Key:
[1] = test system: redroot pigweed; test: Test Example 4: herbicidal effect by soil treatment (Table 19, symbol N); assay type: in vivo, redroot pigweed (Amaranthus retroflexus); conditions: amount of applied herbicide 320 g/ha
In short: (§1)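 In this soil treatment, the formulated compound reached the seeds only through the soil: seeds were buried about 1.5 cm deep in sterilized diluvial soil, then the diluted emulsion was sprayed over the surface. After three weeks at 25° C. to 30° C. in a greenhouse, effects were graded on criteria from an earlier test.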

[2] = test system: southern crabgrass; test: Test Example 4: herbicidal effect by soil treatment (Table 19, symbol F); assay type: in vivo, southern crabgrass (Digitaria ciliaris); conditions: amount of applied herbicide 320 g/ha
In short: as §1

[3] = test system: blackgrass; test: Test Example 5: herbicidal effect by foliage application, plastic box (Table 20, symbol J); assay type: in vivo, blackgrass (Alopecurus myosuroides); conditions: foliage application, AAH 320 g/ha, evaluated three weeks after application
In short: (§2)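 Plants were sown into sterilized diluvial soil under about 1.5 cm cover and kept in a greenhouse at 25° C. to 30° C. Fourteen days on, foliage received an even spray of the diluted emulsion. Herbicidal or crop effect was judged three weeks afterwards.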

[4] = test system: green foxtail; test: Test Example 5: herbicidal effect by foliage application, plastic box (Table 20, symbol G); assay type: in vivo, green foxtail (Setaria viridis); conditions: foliage application, AAH 320 g/ha, evaluated three weeks after application
In short: as §2

[5] = test system: windgrass; test: Test Example 5: herbicidal effect by foliage application, plastic box (Table 20, symbol L); assay type: in vivo, windgrass (Apera spica-venti); conditions: foliage application, AAH 320 g/ha, evaluated three weeks after application
In short: as §2

[6] = test system: rice flat sedge; test: Test Example 3: herbicidal effect by foliage application, Wagner pot (Table 18, symbol E); assay type: in vivo, rice flat sedge (Cyperus iria); conditions: amount of applied herbicide 320 g/ha
In short: (§3)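 Plants were sown in alluvial soil held under 0.1–0.5 cm standing water and grown 14 days in a greenhouse at 25–30 °C. An emulsifiable formulation, water-diluted to the set dose, was then sprayed onto the foliage, and effects were scored three weeks later using previously defined criteria.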

[7] = test system: Chinese sprangletop; test: Test Example 3: herbicidal effect by foliage application, Wagner pot (Table 18, symbol D); assay type: in vivo, chinese sprangletop (Leptochloa chinensis); conditions: amount of applied herbicide 320 g/ha
In short: as §3

[8] = test system: wild oat; test: Test Example 4: herbicidal effect by soil treatment (Table 19, symbol I); assay type: in vivo, wild oat (Avena fatua); conditions: amount of applied herbicide 320 g/ha
In short: as §1

[9] = test system: velvetleaf; test: Test Example 4: herbicidal effect by soil treatment (Table 19, symbol M); assay type: in vivo, velvetleaf (Abutilon theophrasti); conditions: amount of applied herbicide 320 g/ha
In short: as §1

[10] = test system: windgrass; test: Test Example 4: herbicidal effect by soil treatment (Table 19, symbol L); assay type: in vivo, windgrass (Apera spica-venti); conditions: amount of applied herbicide 320 g/ha
In short: as §1

[11] = test system: Italian ryegrass; test: Test Example 5: herbicidal effect by foliage application, plastic box (Table 20, symbol K); assay type: in vivo, Italian ryegrass (Lolium multiflorum); conditions: foliage application, AAH 320 g/ha, evaluated three weeks after application
In short: as §2

[12] = test system: persian speedwell; test: Test Example 5: herbicidal effect by foliage application, plastic box (Table 20, symbol R); assay type: in vivo, Persian speedwell (Veronica persica); conditions: foliage application, AAH 320 g/ha, evaluated three weeks after application
In short: as §2

[13] = test system: velvetleaf; test: Test Example 5: herbicidal effect by foliage application, plastic box (Table 20, symbol M); assay type: in vivo, velvetleaf (Abutilon theophrasti); conditions: foliage application, AAH 320 g/ha, evaluated three weeks after application
In short: as §2

[14] = test system: wild oat; test: Test Example 5: herbicidal effect by foliage application, plastic box (Table 20, symbol I); assay type: in vivo, wild oat (Avena fatua); conditions: foliage application, AAH 320 g/ha, evaluated three weeks after application
In short: as §2

[15] = test system: Japanese bulrush; test: Test Example 1: herbicidal activity, application before weed generation under submerged conditions (Table 16, symbol B); assay type: in vivo, Japanese bulrush (Schoenoplectus juncoides); conditions: 320 g/ha applied herbicide
In short: (§4)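 Emulsion formulation, water-diluted to set dose, was put onto the flooded surface (4 cm depth, alluvial soil) the same day weeds were sown and 2.5-leaf rice transplanted. After 3 weeks at 25-30 °C under glass, each species was rated 0 (≤5% kill) to 5 (≥90% kill).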

[16] = test system: chickweed; test: Test Example 4: herbicidal effect by soil treatment (Table 19, symbol P); assay type: in vivo, common chickweed (Stellaria media); conditions: amount of applied herbicide 320 g/ha
In short: as §1

[17] = test system: barnyard grass; test: Test Example 5: herbicidal effect by foliage application, plastic box (Table 20, symbol H); assay type: in vivo, barnyard grass (Echinochloa crus-galli); conditions: foliage application, AAH 320 g/ha, evaluated three weeks after application
In short: as §2

[18] = test system: false cleavers; test: Test Example 5: herbicidal effect by foliage application, plastic box (Table 20, symbol Q); assay type: in vivo, false cleavers (Galium spurium); conditions: foliage application, AAH 320 g/ha, evaluated three weeks after application
In short: as §2

[19] = test system: chickweed; test: Test Example 5: herbicidal effect by foliage application, plastic box (Table 20, symbol P); assay type: in vivo, common chickweed (Stellaria media); conditions: foliage application, AAH 320 g/ha, evaluated three weeks after application
In short: as §2

[20] = test system: redroot pigweed; test: Test Example 5: herbicidal effect by foliage application, plastic box (Table 20, symbol N); assay type: in vivo, redroot pigweed (Amaranthus retroflexus); conditions: foliage application, AAH 320 g/ha, evaluated three weeks after application
In short: as §2

[21] = test system: barnyard grass; test: Test Example 4: herbicidal effect by soil treatment (Table 19, symbol H); assay type: in vivo, barnyard grass (Echinochloa crus-galli); conditions: amount of applied herbicide 320 g/ha
In short: as §1

[22] = test system: lambsquarters; test: Test Example 5: herbicidal effect by foliage application, plastic box (Table 20, symbol O); assay type: in vivo, lambsquarters (Chenopodium album); conditions: foliage application, AAH 320 g/ha, evaluated three weeks after application
In short: as §2

[23] = test system: southern crabgrass; test: Test Example 5: herbicidal effect by foliage application, plastic box (Table 20, symbol F); assay type: in vivo, southern crabgrass (Digitaria ciliaris); conditions: foliage application, AAH 320 g/ha, evaluated three weeks after application
In short: as §2

[24] = test system: blackgrass; test: Test Example 4: herbicidal effect by soil treatment (Table 19, symbol J); assay type: in vivo, blackgrass (Alopecurus myosuroides); conditions: amount of applied herbicide 320 g/ha
In short: as §1

[25] = test system: Italian ryegrass; test: Test Example 4: herbicidal effect by soil treatment (Table 19, symbol K); assay type: in vivo, Italian ryegrass (Lolium multiflorum); conditions: amount of applied herbicide 320 g/ha
In short: as §1

[26] = test system: persian speedwell; test: Test Example 4: herbicidal effect by soil treatment (Table 19, symbol R); assay type: in vivo, Persian speedwell (Veronica persica); conditions: amount of applied herbicide 320 g/ha
In short: as §1

[27] = test system: late watergrass; test: Test Example 1: herbicidal activity, application before weed generation under submerged conditions (Table 16, symbol A); assay type: in vivo, late watergrass (Echinochloa oryzicola); conditions: 320 g/ha applied herbicide
In short: as §4

[28] = test system: oval-leafed pondweed; test: Test Example 1: herbicidal activity, application before weed generation under submerged conditions (Table 16, symbol C); assay type: in vivo, oval-leafed pondweed (Monochoria vaginalis); conditions: 320 g/ha applied herbicide
In short: as §4

[29] = test system: barnyard grass; test: Test Example 3: herbicidal effect by foliage application, Wagner pot (Table 18, symbol H); assay type: in vivo, barnyard grass (Echinochloa crus-galli); conditions: amount of applied herbicide 320 g/ha
In short: as §3

[30] = test system: green foxtail; test: Test Example 4: herbicidal effect by soil treatment (Table 19, symbol G); assay type: in vivo, green foxtail (Setaria viridis); conditions: amount of applied herbicide 320 g/ha
In short: as §1

[31] = test system: lambsquarters; test: Test Example 4: herbicidal effect by soil treatment (Table 19, symbol O); assay type: in vivo, lambsquarters (Chenopodium album); conditions: amount of applied herbicide 320 g/ha
In short: as §1

`Cc1nn(C)c(=O)c(-c2c(-c3ccc(OC(F)F)cc3)sc3ccc(F)cc23)c1OS(=O)(=O)c1ccc(Cl)cc1` [2-311] was tested, and the “herbicidal effect on N: redroot pigweed” value [1] was 4 (Herbicidal rate of 70% or more and less than 90%), the “herbicidal effect on F: southern crabgrass” value [2] was 0 (Herbicidal rate of 5% or less (almost no effect)) and the “J: blackgrass, herbicidal effect (criteria 0-5)” value [3] was 3 (Herbicidal rate of 40% or more and less than 70%). The “G: green foxtail, herbicidal effect (criteria 0-5)” value [4] was 5 (Herbicidal rate of 90% or more (almost completely withered)), the “L: windgrass, herbicidal effect (criteria 0-5)” value [5] was 4 (Herbicidal rate of 70% or more and less than 90%) and the “herbicidal effect on E: rice flat sedge” value [6] was 4 (Herbicidal rate of 70% or more and less than 90%). For the same molecule, the “herbicidal effect on D: Chinese sprangletop” value [7] was 2 (Herbicidal rate of 20% or more and less than 40%), the “herbicidal effect on I: wild oat” value [8] was 0 (Herbicidal rate of 5% or less (almost no effect)) and the “herbicidal effect on M: velvetleaf” value [9] was 2 (Herbicidal rate of 20% or more and less than 40%). For the same molecule, the “herbicidal effect on L: windgrass” value [10] was 0 (Herbicidal rate of 5% or less (almost no effect)), the “K: Italian ryegrass, herbicidal effect (criteria 0-5)” value [11] was 5 (Herbicidal rate of 90% or more (almost completely withered)) and the “R: persian speedwell, herbicidal effect (criteria 0-5)” value [12] was 5 (Herbicidal rate of 90% or more (almost completely withered)). The “M: velvetleaf, herbicidal effect (criteria 0-5)” value [13] was 5 (Herbicidal rate of 90% or more (almost completely withered)), the “I: wild oat, herbicidal effect (criteria 0-5)” value [14] was 3 (Herbicidal rate of 40% or more and less than 70%) and the “Herbicidal effect on B: Japanese bulrush (grade 0-5)” value [15] was 3 (Herbicidal rate of 40% or more and less than 70%). For the same molecule, the “herbicidal effect on P: chickweed” value [16] was 3 (Herbicidal rate of 40% or more and less than 70%), the “H: barnyard grass, herbicidal effect (criteria 0-5)” value [17] was 5 (Herbicidal rate of 90% or more (almost completely withered)) and the “Q: false cleavers, herbicidal effect (criteria 0-5)” value [18] was 5 (Herbicidal rate of 90% or more (almost completely withered)). The “P: chickweed, herbicidal effect (criteria 0-5)” value [19] was 5 (Herbicidal rate of 90% or more (almost completely withered)), the “N: redroot pigweed, herbicidal effect (criteria 0-5)” value [20] was 5 (Herbicidal rate of 90% or more (almost completely withered)) and the “herbicidal effect on H: barnyard grass” value [21] was 0 (Herbicidal rate of 5% or less (almost no effect)). For the same molecule, the “O: lambsquarters, herbicidal effect (criteria 0-5)” value [22] was 5 (Herbicidal rate of 90% or more (almost completely withered)), the “F: southern crabgrass, herbicidal effect (criteria 0-5)” value [23] was 2 (Herbicidal rate of 20% or more and less than 40%) and the “herbicidal effect on J: blackgrass” value [24] was 0 (Herbicidal rate of 5% or less (almost no effect)). For the same molecule, the “herbicidal effect on K: Italian ryegrass” value [25] was 4 (Herbicidal rate of 70% or more and less than 90%), the “herbicidal effect on R: persian speedwell” value [26] was 4 (Herbicidal rate of 70% or more and less than 90%) and the “Herbicidal effect on A: late watergrass (grade 0-5)” value [27] was 3 (Herbicidal rate of 40% or more and less than 70%). The “Herbicidal effect on C: oval-leafed pondweed (grade 0-5)” value [28] was 3 (Herbicidal rate of 40% or more and less than 70%), the “herbicidal effect on H: barnyard grass” value [29] was 5 (Herbicidal rate of 90% or more (almost completely withered)) and the “herbicidal effect on G: green foxtail” value [30] was 0 (Herbicidal rate of 5% or less (almost no effect)). For the same molecule, the “herbicidal effect on O: lambsquarters” value [31] was 5 (Herbicidal rate of 90% or more (almost completely withered)).
